Measured values reported in patent US20200178542A9, “CONTROL OF PESTS IN COTTON BY G[…] BILOBALIDES” (priority 2015, published 2020).
Like-named read-outs stand apart in the source and are kept apart here.

How the values were obtained:
Nezara viridula = assay: Foliar spray of cotton plants, infestation with Nezara viridula, mortality after three days (Example-1); type: in vivo; settings: for mortality at 100 ppm: Nezara viridula, foliar, 72 h
Procedure: Cotton plants were grown to growth stage BBCH 12. The cotton plants were then sprayed with 300 l/ha of aqueous compositions comprising either no component of the ginkgo tree, 300 ppm of ginkgolide A, or 100 ppm of bilobalide. The plants were then infested with five insects (either adult, or 4th instar nymphs) of Nezara viridula insects. Insects were contained on the plant using mesh organza bags. Three replicate measurement on different plants were made for each measurement. Three days after infestation, the number of live and dead insects was determined. The mean mortality values were gathered in Table D.

Euschistus heros = assay: Spray of cotton seedlings, infestation with adults of Euschistus heros, alive insects and Abbott relative efficacy (Example-2, Example-3); type: in vivo; settings: for Relative Efficacy 1DAI / Relative Efficacy 3DAI: Abbott's formula; for No of alive insects 1DAI / No of alive insects 3DAI: ten adults per plant, mean of 4 replicates
Procedure: Relative efficacy (E) values were calculated according to Abbot's formula
C is the number of alive insects in untreated controls, and G is the number of alive insects in plants treated with components of the ginkgo tree.
Fibermax™ LibertyLink™ cotton, and Bollgard II™ cotton seedlings were sprayed with 2 ml of compositions comprising either no component of the ginkgo tree, or bilobalide at a concentration of 150 ppm, or 100 ppm. Plants were allowed to dry and subsequently infested with ten adults of Euschistus heros. Four replicate measurement on different plants were made for each measurement. One day after infestation (1 DAI), and three days after infestation (3 DAI) the number of live and dead insects was determined. The mean number of alive insects, as well as the relative efficacy values (E) according to Abbott's formula were gathered in Table E, wherein the number of alive insects in untreated controls (C) was the value of the same plant without the application of bilobalide.
The experiment as described in Example-2 was repeated with ginkgolide A in a concentration of 250 ppm. […] The mean number of alive insects, as well as the relative efficacy values (E) according to Abbott's formula were gathered in Table F, wherein the number of alive insects in untreated controls (C) was the value of the same plant without the application of ginkgolide A.

[1] = Fibermax LibertyLink cotton, 250 ppm
[2] = Fibermax LibertyLink cotton, 100 ppm
[3] = Fibermax LibertyLink cotton, 150 ppm

Structure (SMILES): C[C@@H]1C(=O)O[C@H]2C[C@@]34[C@H]5C[C@@H](C(C)(C)C)[C@]36[C@@H](OC(=O)[C@@H]6O)O[C@@]4(C(=O)O5)[C@]21O [Ginkgolide A]
- Mortality of 4th instar nymphs (Nezara viridula; N. viridula 4th instar nymphs on cotton (BBCH 12), 300 ppm, 300 l/ha spray, three days after infestation, mean of 3 replicates): 78.6%
- Mortality of Adults (Nezara viridula; N. viridula adults on cotton (BBCH 12), 300 ppm, 300 l/ha spray, three days after infestation, mean of 3 replicates): 93.3%
- Relative Efficacy 1DAI (Euschistus heros; Bollgard II cotton, 250 ppm): 5%
- No of alive insects 1DAI (Euschistus heros; Bollgard II cotton, 250 ppm): 9.5
- Relative Efficacy 3DAI (Euschistus heros; Bollgard II cotton, 250 ppm): 33%
- No of alive insects 3DAI (Euschistus heros; Bollgard II cotton, 250 ppm): 6.8
- Relative Efficacy 1DAI (Euschistus heros; [1]): 0%
- No of alive insects 1DAI (Euschistus heros; [1]): 10.0
- Relative Efficacy 3DAI (Euschistus heros; [1]): 5%
- No of alive insects 3DAI (Euschistus heros; [1]): 9.5

Structure (SMILES): CC(C)(C)[C@]1(O)C[C@@H]2OC(=O)C[C@@]23C(=O)O[C@@H]2OC(=O)[C@H](O)[C@]213 [Bilobalide, (3aS,5aR,8aS,9R,10aR)-9-tert-butyl-8,9-dihydroxydihydro-9H-furo[2,3-b]furo[3′,2′; 2,3]cyclopenta[1,2-c]furan-2,4,7(3H,8H)-trione]
- mortality at 100 ppm (Nezara viridula; read-out: Mortality of 4th instar nymphs): 92.9%
- mortality at 100 ppm (Nezara viridula; read-out: Mortality of Adults): 53.3%
- Relative Efficacy 1DAI (Euschistus heros; Bollgard II cotton, 100 ppm): 78%
- No of alive insects 1DAI (Euschistus heros; Bollgard II cotton, 100 ppm): 2.3
- Relative Efficacy 3DAI (Euschistus heros; Bollgard II cotton, 100 ppm): 98%
- No of alive insects 3DAI (Euschistus heros; Bollgard II cotton, 100 ppm): 0.3
- Relative Efficacy 1DAI (Euschistus heros; Bollgard II cotton, 150 ppm): 75%
- No of alive insects 1DAI (Euschistus heros; Bollgard II cotton, 150 ppm): 2.5
- Relative Efficacy 3DAI (Euschistus heros; Bollgard II cotton, 150 ppm): 100%
- No of alive insects 3DAI (Euschistus heros; Bollgard II cotton, 150 ppm): 0.0
- Relative Efficacy 1DAI (Euschistus heros; [2]): 68%
- No of alive insects 1DAI (Euschistus heros; [2]): 3.3
- Relative Efficacy 3DAI (Euschistus heros; [2]): 98%
- No of alive insects 3DAI (Euschistus heros; [2]): 0.3
- Relative Efficacy 1DAI (Euschistus heros; [3]): 70%
- No of alive insects 1DAI (Euschistus heros; [3]): 3.0
- Relative Efficacy 3DAI (Euschistus heros; [3]): 100%
- No of alive insects 3DAI (Euschistus heros; [3]): 0.0
